Reference: patent US7786141B2 (Vertex Pharmaceuticals Incorporated, priority 2004, dated 2010)

Legend:
M1 muscarinic receptor = target: T1, M1 muscarinic receptor (Homo sapiens, UniProt P11229); assay: Functional mobilization of intracellular calcium (FLIPR) in M1-CHO cells; assay type: cell-based; settings: M1 receptor, calcium mobilization; for Emax: read-out: M1 Efficacy
T1 construct: expressed in transfected cells; host or cells: CHO (M1-CHO)
T1 sequence (P11229 1-460): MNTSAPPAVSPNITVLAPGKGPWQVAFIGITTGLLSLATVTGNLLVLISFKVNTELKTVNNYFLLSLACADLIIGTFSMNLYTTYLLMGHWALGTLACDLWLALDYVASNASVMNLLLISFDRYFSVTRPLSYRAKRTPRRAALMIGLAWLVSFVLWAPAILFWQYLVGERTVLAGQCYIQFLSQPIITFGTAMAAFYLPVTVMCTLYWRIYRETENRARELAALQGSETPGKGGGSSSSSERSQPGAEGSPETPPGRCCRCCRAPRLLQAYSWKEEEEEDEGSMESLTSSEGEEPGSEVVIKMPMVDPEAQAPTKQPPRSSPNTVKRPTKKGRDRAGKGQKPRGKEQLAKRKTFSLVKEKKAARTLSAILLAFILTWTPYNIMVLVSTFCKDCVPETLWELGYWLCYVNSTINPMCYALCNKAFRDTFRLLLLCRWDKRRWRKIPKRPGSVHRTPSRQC
Description: (§1) Functional Mobilization of Intracellular Calcium to Determine Muscarinic Receptor Activity:
(§2) CHO cells expressing muscarinic receptors (M1 to M5) are grown as monolayers in tissue culture flasks at 37° C. in a humidified atmosphere containing 5% CO2 and passaged every 3-5 days. The growth media is Dulbecco's modified eagles medium (DMEM, Gibco Cat# 12430-054), containing 25 mM Hepes and supplemented with Fetal Bovine Serum (Hyclone, cat# SH30071.03), 0.1 mM of MEM non-essential amino acids (GIBCO, Cat# 11140-050), 1 mM MEM Sodium Pyruvate (GIBCO Cat# 11360-070) and 100 units/ml of Penicillin G and 100 μg/ml of Streptomycin (GIBCO Cat# 15140-122). The recombinant muscarinic receptor cell lines are grown under antibiotic pressure with media containing 25 μg/ml zeocin and 500 μg/ml G418 (M1-CHO), 4 μg/ml puromycin, 50 μg/ml zeocin and 2.5 μg/ml blasticidin (M2 and M4-CHO) or 50 μg/ml zeocin and 4 μg/ml puromycin (M3 and M5-CHO).
(§3) Cells are harvested at 80-90% confluence using Versene (GIBCO Cat# 15040-066), collected by centrifugation and seeded 18-24 hrs prior to running the calcium assay at a density of 5,000 cells/well in back-walled, clear-bottomed 384-well plates (BD Biocoat, poly-D-lysine, Cat#356663). The day of the experiment, the cells are washed with a plate washer (Bioteck Instruments, ELX 405) using bath 1 buffer (140-mM NaCl, 4.5-mM KCl, 2-mM CaCl2, 1-mM MgCl2, 10-mM Hepes-Na, 10-mM Glucose, pH 7.4, with NaOH) containing 1 mM Probenecid. Next, the calcium dye Fluo-3 (25 μl/well of Fluo-3 AM at 4 μM, Molecular Probes F-1241, in Bath 1 buffer containing 1 mM Probenecid) is added to the 25 μl of Bath 1 remaining in each well after the plate wash and the dye is loaded at 37° C. in the tissue culture incubator for 60-90 min. The fluorescent dye is removed using the plate washer with Bath 1 containing 1 mM Probenecid, leaving 25 μl/well of this solution after the wash. Alternatively, cells can be loaded with the calcium indicator from Molecular Devices (Calcium 3 Assay Reagents, Cat # R7181) adding 5 μl of a 5× solution dye in Bath 1 containing 1 mM Probenecid (10 ml per dye flask cat# R7182 to generate a solution 20×) to 20 μl of the same buffer. After loading for 60 min, the experiment can be run without having to remove the dye.
(§4) Compounds are prepared at a 2× fold concentration in a 96-well plate (round bottom, Costar Corning cat# 3656), by reconstituting the pre-spotted compounds in bath 1 containing 1 mM probenecid. The final concentration DMSO is 0.5%, and the amount of DMSO is normalized across the assay plate. To determine an agonist action of the compounds on muscarinic receptors, the reconstituted compounds are added (25 μl compound/well) to the cell assay plate (containing 25 μl/well) using the multi-channel robotic system of the FLIPR 3 Instrument (Molecular Devices, Sunnyvale, Calif.). To determine a functional inhibitory action of the compounds on muscarinic receptors, the reconstituted compounds are added (25 μl compound/well) to the assay plate and pre-incubated for 15 min prior to adding 25 μl of Carbachol at 3× the EC80 for each muscarinic subtype. Alternatively, the compounds can be co-applied simultaneously with the agonist. In both assay modes, the fluorescence is recorded for 60 sec (excitation wavelength is […] and emission wavelength 540 nm) using the FLIPR 3 instrument.
(§5) The potency, efficacy and selectivity of the muscarinic compounds were evaluated by screening the compound activity across the whole family (M1 to M5 cells). Compounds were also screened for activity on other proteins such as other GPCRs and ion channels to determine selectivity on M4 receptors.

M4 muscarinic receptor = target: T2, M4 muscarinic receptor (Homo sapiens, UniProt P08173); assay: Functional mobilization of intracellular calcium (FLIPR) in M4-CHO cells; assay type: cell-based; settings: M4 receptor, calcium mobilization; for Emax: read-out: M4 Efficacy
T2 construct: expressed in transfected cells; host or cells: CHO (M4-CHO)
T2 sequence (P08173 1-479): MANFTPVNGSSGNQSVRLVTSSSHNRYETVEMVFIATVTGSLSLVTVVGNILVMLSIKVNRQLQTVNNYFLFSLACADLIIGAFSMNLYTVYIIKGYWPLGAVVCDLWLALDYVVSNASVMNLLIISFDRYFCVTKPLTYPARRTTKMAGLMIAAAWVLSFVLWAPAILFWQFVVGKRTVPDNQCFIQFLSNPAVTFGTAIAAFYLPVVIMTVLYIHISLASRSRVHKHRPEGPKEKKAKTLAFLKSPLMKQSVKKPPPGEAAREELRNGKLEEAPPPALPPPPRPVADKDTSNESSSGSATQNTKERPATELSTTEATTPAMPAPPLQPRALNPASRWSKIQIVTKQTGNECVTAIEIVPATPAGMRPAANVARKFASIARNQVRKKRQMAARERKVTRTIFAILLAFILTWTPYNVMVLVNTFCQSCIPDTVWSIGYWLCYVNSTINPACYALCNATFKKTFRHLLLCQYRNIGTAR
Description: as §1, §2, §3, §4, §5

| Compound | M1 Activity (M1 muscarinic receptor) | Emax (M1 muscarinic receptor) | M4 Activity (M4 muscarinic receptor) | Emax (M4 muscarinic receptor) |
| --- | --- | --- | --- | --- |
| Clc1ccc2c(c1)C1(CCN([C@H]3C[C@@H]4CC[C@@H]3C4)CC1)CO2 [compound 1] | xx (activity was measured to be between 0.1 μM and 1.0 μM) | 65 to 85% | xx (activity was measured to be between 0.1 μM and 1.0 μM) | > 85% |
| CC(=O)NC1CC2(CCN(C3CCCCC3)CC2)c2ccccc21 (centres unmarked) [compound 2] | x (activity was measured to be greater than 1.0 μM) | < 65% | x (activity was measured to be greater than 1.0 μM) | < 65% |
| Cc1ccc2c(c1)C1(CCN(CC3CC4C=CC3C4)CC1)CN2 (centres unmarked) [compound 3] | xxx (activity was measured to be less than 0.1 μM) | 65 to 85% | xx (activity was measured to be between 0.1 μM and 1.0 μM) | 65 to 85% |
| CC(=O)N[C@H]1CC2(CCN(C3C4CC5CC(C4)CC3C5)CC2)c2ccccc21 (some centres unmarked) [compound 4] | xxx (activity was measured to be less than 0.1 μM) | < 65% | x (activity was measured to be greater than 1.0 μM) | < 65% |
| Clc1ccc2c(c1)C1(CCN(C3CCCCC3)CC1)CO2 [compound 5] | xxx (activity was measured to be less than 0.1 μM) | 65 to 85% | xxx (activity was measured to be less than 0.1 μM) | > 85% |
| CCOC(=O)N1CCC(N2CCC3(CC2)CN(C(C)=O)c2ccc(-c4cccc(C)c4)cc23)CC1 [compound 6] | xxx (activity was measured to be less than 0.1 μM) | 65 to 85% | xx (activity was measured to be between 0.1 μM and 1.0 μM) | 65 to 85% |
| O=C1Nc2ccccc2C12CCN(CC1CC3C=CC1C3)CC2 (centres unmarked) [compound 7] | xxx (activity was measured to be less than 0.1 μM) | 65 to 85% | xx (activity was measured to be between 0.1 μM and 1.0 μM) | > 85% |
| CC(=O)NC1CC2(CCN(C3CC4CCC(C4)C3)CC2)c2ccccc21 (centres unmarked) [compound 8] | xx (activity was measured to be between 0.1 μM and 1.0 μM) | < 65% | xx (activity was measured to be between 0.1 μM and 1.0 μM) | 65 to 85% |
| CCOC(=O)N1C2CCC1CC(N1CCC3(CC1)CN(C(C)=O)c1ccc(C)cc13)C2 (centres unmarked) [compound 9] | xxx (activity was measured to be less than 0.1 μM) | 65 to 85% | x (activity was measured to be greater than 1.0 μM) | 65 to 85% |
| CCOC(=O)N1CCC(N2CCC3(CC2)CN(C(C)=O)c2ccc(-c4ccc(NC(C)=O)cc4)cc23)CC1 [compound 10] | xx (activity was measured to be between 0.1 μM and 1.0 μM) | 65 to 85% | xx (activity was measured to be between 0.1 μM and 1.0 μM) | 65 to 85% |
| C=Cc1ccc2c(c1)C1(CCN(C3CCN(C(=O)OCC)CC3)CC1)CN2C(C)=O [compound 11] | x (activity was measured to be greater than 1.0 μM) | < 65% | x (activity was measured to be greater than 1.0 μM) | < 65% |
| CCC(=O)CCN1CC2(CCN(C[C@@H]3C[C@H]4C=C[C@H]3C4)CC2)c2cc(F)ccc21 [compound 12] | xxx (activity was measured to be less than 0.1 μM) | < 65% | xx (activity was measured to be between 0.1 μM and 1.0 μM) | < 65% |
| Fc1ccc2c(c1)C1(CCN(CC3CCC4CCC3C4)CC1)CN2 (centres unmarked) [compound 13] | xx (activity was measured to be between 0.1 μM and 1.0 μM) | 65 to 85% | x (activity was measured to be greater than 1.0 μM) | < 65% |
| CC(=O)N1CC2(CCN(CC3CCN(C(=O)O[C@@H]4CCOC4)CC3)CC2)c2cc(F)ccc21 [compound 14] | xxx (activity was measured to be less than 0.1 μM) | 65 to 85% | xxx (activity was measured to be less than 0.1 μM) | > 85% |
| CCCC1CCC(N2CCC3(CC2)C[C@H](NC(C)=O)c2ccccc23)CC1 (some centres unmarked) [compound 15] | xxx (activity was measured to be less than 0.1 μM) | 65 to 85% | xx (activity was measured to be between 0.1 μM and 1.0 μM) | > 85% |
| CS(=O)(=O)N1CC2(CCN(C3CC4CCC(C3)N4C(=O)O[C@@H]3CCOC3)CC2)c2cc(F)ccc21 (some centres unmarked) [compound 16] | xxx (activity was measured to be less than 0.1 μM) | 65 to 85% | xxx (activity was measured to be less than 0.1 μM) | 65 to 85% |
| CCOC(=O)N1CCC(N2CCC3(CC2)CN(C(=O)C2CCCC2)c2ccc(F)cc23)CC1 [compound 17] | xx (activity was measured to be between 0.1 μM and 1.0 μM) | < 65% | xx (activity was measured to be between 0.1 μM and 1.0 μM) | 65 to 85% |
| c1ccc2c(c1)CCC21CCN(CC2CCOCC2)CC1 [compound 18] | xxx (activity was measured to be less than 0.1 μM) | < 65% | xx (activity was measured to be between 0.1 μM and 1.0 μM) | > 85% |
| CCOC(=O)N1CCC(N2CCC3(CC2)CNc2ccc(Cl)cc23)CC1 [compound 19] | xxx (activity was measured to be less than 0.1 μM) | 65 to 85% | xx (activity was measured to be between 0.1 μM and 1.0 μM) | 65 to 85% |
| CC1(C)C(=O)c2ccccc2C12CCN(C[C@H]1C[C@@H]3C=C[C@@H]1C3)CC2 [compound 20] | x (activity was measured to be greater than 1.0 μM) | < 65% | xx (activity was measured to be between 0.1 μM and 1.0 μM) | < 65% |
